Assays:
MOLM-13 cells = experiment: MOLM-13 96 Hour cell proliferation assay (Cell Titer-Glo); assay type: cell-based; conditions: Homo sapiens
Method: MOLM-13 96 Hour Cell Proliferation Assay
MOLM-13 (DSMZ) cells were seeded at 600 cells per well in a volume of 44 μL in a Greiner Bio-One CELLSTAR™ 384 Well Polystyrene Cell Culture clear bottom microplate in RPMI 1640 media containing 10% fetal bovine serum using a Multidrop Combi (ThermoFisher Scientific). Cells were incubated overnight at 37° C. in a humidified tissue culture incubator. To prevent evaporation or to reduce edge effect, add 50 μL or more H2O to an empty plate, cover, and place on top of the cell plates. The Mosquito® HTS Liquid Handler was used to make a compound/media intermediate plate by aliquoting 1 μL of compound from the initial compound dilution plate (concentrations ranging from 10.0 mM to 38.0 nM in 100% DMSO) into Bio-One 384-well polypropylene conical bottom microplate containing 49 μL of media containing the appropriate serum (50-fold dilution, 2% DMSO, compound concentrations ranging from 200.0 μM and […]). The Apricot liquid handling system was used to transfer 6.2 μL compounds from the intermediate plate into the seeding plate containing 44 μL cells (8-fold dilution spanning concentrations 25.0 μM to […], 0.25% DMSO final), and placed in a humidified tissue culture incubator at 37° C. After 96 hours, 25 μL of Cell Titer-Glo reagent (Promega) was added to each well using an Integra liquid handling system. The plate was protected from light using TopSeal-A (Black) film over the entire plate, added White Bottom seal film on the bottom of the entire plate for a better reading on the Envision, and placed on an IKA plate shaker for at 300 rpm for 10 minutes at room temperature. The plate was read on an EnVision plate reader (Perkin Elmer) using the Ultra Sensitive Luminescence protocol. Data analysis was performed by normalizing the raw luminescence units to an average of the positive control values for staurosporine (100% cell death) and the negative control values for DMSO (0% cell death). An IC50 was calculated using a 4-parameter logistic nonlinear regression model in GraphPad Prism.

METTL3/METTL14 = METTL3/METTL14 (Homo sapiens, UniProt Q86U44); experiment: METTL3-14 standard enzyme assay (3H-SAM flashplate scintillation); assay type: biochemical; conditions: METTL3/METTL14 2.5 nM, RNA 100 nM, 3H-SAM 100 nM, 30 min
METTL3/METTL14, sequence (Q86U44 whole entry, species assumed): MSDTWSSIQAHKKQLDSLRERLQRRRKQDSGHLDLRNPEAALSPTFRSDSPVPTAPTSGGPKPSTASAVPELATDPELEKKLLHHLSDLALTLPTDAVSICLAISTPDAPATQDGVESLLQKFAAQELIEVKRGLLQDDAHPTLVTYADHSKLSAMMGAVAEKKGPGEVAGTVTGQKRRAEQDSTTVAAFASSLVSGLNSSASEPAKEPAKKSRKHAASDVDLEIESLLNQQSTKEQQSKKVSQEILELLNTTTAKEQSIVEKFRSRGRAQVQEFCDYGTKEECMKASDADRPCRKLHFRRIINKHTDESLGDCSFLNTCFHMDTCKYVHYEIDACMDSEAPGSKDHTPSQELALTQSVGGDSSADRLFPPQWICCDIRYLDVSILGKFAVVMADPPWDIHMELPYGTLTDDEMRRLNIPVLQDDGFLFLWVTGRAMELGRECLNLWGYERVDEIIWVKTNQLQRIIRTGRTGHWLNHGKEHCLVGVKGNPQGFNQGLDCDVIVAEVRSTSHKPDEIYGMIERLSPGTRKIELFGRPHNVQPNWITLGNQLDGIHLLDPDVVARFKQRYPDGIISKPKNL
METTL3/METTL14, sequence (Q9HCE5 whole entry partner, species assumed): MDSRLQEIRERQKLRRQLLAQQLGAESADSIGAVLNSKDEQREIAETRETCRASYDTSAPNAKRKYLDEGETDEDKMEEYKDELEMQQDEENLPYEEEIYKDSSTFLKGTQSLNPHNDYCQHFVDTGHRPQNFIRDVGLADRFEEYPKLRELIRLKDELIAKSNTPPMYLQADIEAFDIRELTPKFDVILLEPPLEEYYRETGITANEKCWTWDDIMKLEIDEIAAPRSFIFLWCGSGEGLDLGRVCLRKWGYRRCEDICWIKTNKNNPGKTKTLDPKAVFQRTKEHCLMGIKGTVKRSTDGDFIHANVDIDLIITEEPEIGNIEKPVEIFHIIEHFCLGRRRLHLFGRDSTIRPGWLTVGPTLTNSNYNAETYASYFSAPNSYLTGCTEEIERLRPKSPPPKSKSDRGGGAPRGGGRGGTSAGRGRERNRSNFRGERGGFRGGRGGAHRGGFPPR
Procedure, shortened: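 Radiometric methylation readout: biotinylated RNA substrate UCUGGACUAAA and 3H-SAM, each 100 nM final, reacted 30 min at ambient temperature with 2.5 nM enzyme complex after 5 min compound preincubation (HEPES pH 7.5 buffer, KCl, MgCl2, DTT). Excess unlabelled SAM (15 μM) stopped reactions before streptavidin flashplate capture.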

PRMT5-MEP50 = PRMT5-MEP50 (Homo sapiens, UniProt O14744); experiment: PRMT5 assay (3H-SAM flashplate scintillation); assay type: biochemical; conditions: PRMT5-MEP50 2.5 nM, histone H4 peptide 100 nM, 3H-SAM 250 nM, 60 min
PRMT5-MEP50, sequence (O14744 whole entry): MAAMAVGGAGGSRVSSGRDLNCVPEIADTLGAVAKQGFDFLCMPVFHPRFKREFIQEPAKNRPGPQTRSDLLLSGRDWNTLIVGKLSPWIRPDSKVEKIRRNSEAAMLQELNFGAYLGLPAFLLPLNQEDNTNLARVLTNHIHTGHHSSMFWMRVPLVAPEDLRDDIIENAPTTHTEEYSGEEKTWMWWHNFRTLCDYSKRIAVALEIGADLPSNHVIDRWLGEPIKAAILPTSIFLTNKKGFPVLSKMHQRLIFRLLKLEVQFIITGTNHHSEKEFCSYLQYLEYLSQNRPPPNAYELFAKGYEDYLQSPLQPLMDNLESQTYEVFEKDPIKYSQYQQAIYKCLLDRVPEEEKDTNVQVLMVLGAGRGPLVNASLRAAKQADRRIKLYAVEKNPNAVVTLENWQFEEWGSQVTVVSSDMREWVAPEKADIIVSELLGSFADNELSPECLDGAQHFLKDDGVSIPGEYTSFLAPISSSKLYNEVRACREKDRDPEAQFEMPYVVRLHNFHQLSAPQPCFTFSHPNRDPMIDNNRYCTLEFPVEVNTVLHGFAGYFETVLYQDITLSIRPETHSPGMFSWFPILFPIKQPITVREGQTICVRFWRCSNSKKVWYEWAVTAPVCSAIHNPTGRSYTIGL
PRMT5-MEP50, sequence (Q9BQA1 whole entry partner): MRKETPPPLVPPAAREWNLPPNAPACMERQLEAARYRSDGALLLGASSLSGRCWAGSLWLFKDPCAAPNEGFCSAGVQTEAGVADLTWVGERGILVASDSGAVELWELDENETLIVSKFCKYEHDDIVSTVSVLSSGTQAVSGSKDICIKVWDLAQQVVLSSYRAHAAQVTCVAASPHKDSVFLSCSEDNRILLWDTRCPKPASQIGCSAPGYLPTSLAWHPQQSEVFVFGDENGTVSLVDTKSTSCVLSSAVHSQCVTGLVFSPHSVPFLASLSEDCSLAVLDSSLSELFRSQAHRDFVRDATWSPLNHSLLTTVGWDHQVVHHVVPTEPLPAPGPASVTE
Procedure, shortened: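 Radiometric methyltransferase read-out: after 60 min reaction, excess unlabelled SAM (15 μM) stops turnover and biotinylated H4 peptide (100 nM) carrying 3H-methyl from 250 nM 3H-SAM is captured on streptavidin flashplates (2 h, 25° C) for scintillation counting. Enzyme, 2.5 nM PRMT5-MEP50, was preincubated 5 min with compound in pH 8.0 Tris buffer with DTT and Tween.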

METTL1/WDR4 = METTL1/WDR4 (Homo sapiens, UniProt Q9UBP6); experiment: METTL1 assay (3H-SAM flashplate scintillation); assay type: biochemical; conditions: METTL1/WDR4 6.25 nM, RNA 25 nM, 3H-SAM 60 nM, 20 min; read-out: METTL1 IC50
METTL1/WDR4, sequence (Q9UBP6 whole entry, species assumed): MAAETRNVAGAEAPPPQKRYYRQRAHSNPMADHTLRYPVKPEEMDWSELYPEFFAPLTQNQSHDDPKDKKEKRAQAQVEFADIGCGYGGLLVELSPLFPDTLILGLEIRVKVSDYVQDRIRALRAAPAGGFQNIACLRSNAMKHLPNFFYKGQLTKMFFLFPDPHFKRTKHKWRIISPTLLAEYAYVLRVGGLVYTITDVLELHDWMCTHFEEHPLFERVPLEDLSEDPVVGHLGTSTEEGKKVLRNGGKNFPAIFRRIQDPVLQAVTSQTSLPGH
METTL1/WDR4, sequence (P57081 whole entry partner, species assumed): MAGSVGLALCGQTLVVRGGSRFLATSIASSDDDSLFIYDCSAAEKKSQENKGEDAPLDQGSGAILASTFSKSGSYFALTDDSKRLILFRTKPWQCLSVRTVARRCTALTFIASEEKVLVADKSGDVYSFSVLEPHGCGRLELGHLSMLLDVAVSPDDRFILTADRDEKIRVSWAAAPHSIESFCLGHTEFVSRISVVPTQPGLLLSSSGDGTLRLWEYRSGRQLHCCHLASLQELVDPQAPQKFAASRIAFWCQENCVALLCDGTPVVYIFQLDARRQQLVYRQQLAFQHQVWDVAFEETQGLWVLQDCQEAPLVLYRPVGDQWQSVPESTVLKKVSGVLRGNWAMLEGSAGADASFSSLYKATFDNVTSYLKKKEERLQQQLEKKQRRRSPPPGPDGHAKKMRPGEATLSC
Method: (§1) Assays were performed in a 25 μl-volume in 384-well V-bottom polypropylene microplates (Greiner Bio-One, cat. No. 781280) at ambient temperature. Optimized 1× assay buffer was 20 mM HEPES pH 7.5, 50 mM KCl, 250 μM MgCl2, 1 mM DTT, 0.01% Tween, 0.01% BSG, 0.004 U/μl RNAseOUT (cat. No. 10777019, ThermoFisher Scientific, Waltham, Mass.). For compound screening METTL1/WDR4 (final concentration, f.c.=6.25 nM) was added using a Multidrop Combi (ThermoFisher Scientific, Waltham, Mass.) and preincubated for 5 min. Reactions were started by adding 3′ biotinylated RNA ([…]-biotin) (f.c.=25 nM) and 3H-SAM (f.c.=60 nM) substrates. Reactions proceeded for 20 minutes and were quenched with excess non-radioactive SAM (f.c.=15 μM). The reactions were then transferred to streptavidin-coated flashplates and incubated for 2 hours at 25° C. Following two washing cycles with 0.1% Tween-20, the plates were sealed and read on a TopCount (PerkinElmer, Waltham, Mass.) plate-based scintillation counter. For determination of kinetic parameters, reaction times were optimized so that measurements were taken during the initial velocity phase of the reaction.

METTL16 = biological target: T1, METTL16 (Homo sapiens, UniProt Q86W50); experiment: METTL16 assay (3H-SAM flashplate scintillation); assay type: biochemical; conditions: METTL16 100 nM, RNA 50 nM, 3H-SAM 200 nM, SAM 800 nM, 20 min
T1 sequence (Q86W50 1-562): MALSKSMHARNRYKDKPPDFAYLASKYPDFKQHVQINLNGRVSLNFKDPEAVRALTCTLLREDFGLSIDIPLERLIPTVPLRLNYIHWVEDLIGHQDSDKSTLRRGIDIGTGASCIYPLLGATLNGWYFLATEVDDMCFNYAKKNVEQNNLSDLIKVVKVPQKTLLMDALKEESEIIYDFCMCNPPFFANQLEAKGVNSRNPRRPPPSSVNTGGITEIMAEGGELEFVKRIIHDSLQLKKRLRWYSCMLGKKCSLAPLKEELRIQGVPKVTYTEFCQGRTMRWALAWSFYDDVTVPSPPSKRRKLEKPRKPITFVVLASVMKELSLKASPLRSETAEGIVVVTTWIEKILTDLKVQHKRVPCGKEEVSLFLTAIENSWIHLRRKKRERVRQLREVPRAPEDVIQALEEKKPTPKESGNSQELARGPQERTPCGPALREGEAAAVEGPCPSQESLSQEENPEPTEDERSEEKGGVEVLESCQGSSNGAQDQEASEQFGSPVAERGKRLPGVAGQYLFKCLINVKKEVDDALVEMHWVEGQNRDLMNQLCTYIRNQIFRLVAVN
Method: as §1, with “KCl,” for “KCl, 250 μM MgCl2,”, “METTL16” for “METTL1/WDR4”, “f.c.=100” for “f.c.=6.25”, “(f.c.=50 nM), 3H-SAM (f.c.=200” for “(f.c.=25”, “non-radiolabeled SAM (f.c.=800” for “3H-SAM (f.c.=60”, “(f.c.=100” for “(f.c.=15”

| Compound | IC50 (MOLM-13 cells) [nM] | IC50 (METTL3/METTL14) [nM] | IC50 (PRMT5-MEP50) [nM] | IC50 (METTL1/WDR4) [nM] | IC50 (METTL16) [nM] |
| --- | --- | --- | --- | --- | --- |
| Cn1ccc(-c2cn(-c3cncc(COc4ccc5ccc(N6CC(F)(F)C6)nc5c4)c3)c3ncnc(N)c23)n1 [Compound I-212] | 1000 to 10000 | < 10 | > 1000 |  |  |
| Cn1ccc(-c2cn(-c3cncc(COc4ccc5ccc(N6CC(N)C6)nc5c4)c3)c3ncnc(N)c23)n1 [Compound I-213] | < 1000 | < 10 | > 1000 |  |  |
| CCc1cc(N(C)C)c2ccc(OCc3cncc(-n4ccc5c(N)ncnc54)c3)cc2n1 [Compound I-232] | < 1000 | 10 to 100 | > 1000 |  |  |
| CCc1cc(NCCOC)c2c(F)cc(CCc3cncc(-n4cc(-c5ccn(C)n5)c5c(N)ncnc54)c3)cc2n1 [Compound I-228] | < 1000 | < 10 |  |  |  |
| CCc1cc(NCCOC)c2ncc(CCc3cncc(-n4cc(-c5ccn(C)n5)c5c(N)ncnc54)c3)cc2n1 [Compound I-132] | < 1000 | < 10 |  |  |  |
| Cc1nc(-c2cn(-c3cncc(COc4ccc5ccc(N6CCC6)nc5c4)c3)c3ncnc(N)c23)co1 [Compound I-239] | 1000 to 10000 | < 10 | > 1000 |  |  |
| CCc1cc(NCCOC)c2c(F)cc(OCc3cncc(-n4cc(-c5ccn(C)n5)c5c(N)ncnc54)c3)cc2n1 [Compound I-229] | < 1000 | < 10 |  |  |  |
| CCc1ncc(-n2cc(Cl)c3c(N)ncnc32)cc1COc1ccc2ccc(NC)nc2c1 [Compound I-68] |  | 10 to 100 | > 1000 | > 1000 | > 1000 |
| Nc1ncnc2c1c(Cl)cn2-c1cccc(COc2ccc3ccc(NCC4CC4)nc3c2)c1 [Compound I-67] |  | 100 to 1000 | > 1000 | > 1000 | > 1000 |
| CNc1ccc2ccc(OCc3cccc(-n4cc(CCN(C)C)c5c(N)ncnc54)c3)cc2n1 [Compound I-32] |  | 100 to 1000 | > 1000 | > 1000 | > 1000 |
| CNc1ccc2ccc(OCc3cc(C#N)cc(-n4ccc5c(N)ncnc54)c3)cc2n1 [Compound I-119] |  | 100 to 1000 | > 1000 | > 1000 | > 1000 |

Further lines, with some results ahead:

| IC50 (MOLM-13 cells) [nM] | IC50 (METTL3/METTL14) [nM] | IC50 (PRMT5-MEP50) [nM] | Compound | IC50 (METTL1/WDR4) [nM] | IC50 (METTL16) [nM] |
| --- | --- | --- | --- | --- | --- |
| < 1000 | < 10 |  | CCc1cc(NCCOC)c2ccc(OCc3cncc(-n4cc([C@@H]5CCCO5)c5c(N)ncnc54)c3)cc2n1 [Compound I-141] |  |  |
| < 1000 | 10 to 100 |  | CCc1cc(N2CCOCC2)c2ccc(OCc3cncc(-n4cc([C@H]5CCCO5)c5c(N)ncnc54)c3)cc2n1 [Compound I-142] |  |  |
| < 1000 | < 10 |  | CCNc1ccc2ccc(OCc3cncc(-n4cc([C@@H]5CCCO5)c5c(N)ncnc54)c3)cc2n1 [Compound I-146] |  |  |
| 1000 to 10000 | < 10 | > 1000 | Cn1ccc(-c2cn(-c3cncc(COc4ccc5ccc(N6CC(=O)C6)nc5c4)c3)c3ncnc(N)c23)n1 [Compound I-217] |  |  |
| < 1000 | < 10 |  | Nc1ncnc2c1c([C@H]1CCCO1)cn2-c1cncc(COc2ccc3ccc(N4CCC4)nc3c2)c1 [Compound I-144] |  |  |
| 1000 to 10000 | < 10 |  | COCc1cn(-c2cncc(COc3ccc4ccc(N5CCC5)nc4c3)c2)c2ncnc(N)c12 [Compound I-237] |  |  |
| < 1000 | < 10 |  | CCCc1cc(N)c2ccc(CCc3cncc(-n4cc(-c5ccn(C)n5)c5c(N)ncnc54)c3)cc2n1 [Compound I-131] |  |  |
| < 1000 | < 10 |  | CCc1cc(N2CCOCC2)c2ncc(OCc3cncc(-n4cc(-c5ccn(C)n5)c5c(N)ncnc54)c3)cc2n1 [Compound I-150] |  |  |
| < 1000 | < 10 |  | CCc1cc(N2CCOCC2)c2ccc(OCc3cncc(-n4cc([C@@H]5CCCO5)c5c(N)ncnc54)c3)cc2n1 [Compound I-143] |  |  |
| 1000 to 10000 | < 10 |  | CCc1cc(N2CCNCC2)c2ccc(OCc3cncc(-n4cc([C@@H]5CCCO5)c5c(N)ncnc54)c3)cc2n1 [Compound I-149] |  |  |
| < 1000 | < 10 | > 1000 | CCc1cc(N2CCN(C)CC2)c2ccc(OCc3cncc(-n4ccc5c(N)ncnc54)c3)cc2n1 [Compound I-107] |  |  |
| < 1000 | < 10 |  | CCNc1ccc2ccc(OCc3cncc(-n4cc([C@H]5CCCO5)c5c(N)ncnc54)c3)cc2n1 [Compound I-134] |  |  |
| 1000 to 10000 | < 10 |  | CCNc1ccc2ccc(CCc3cncc(-n4cc([C@H]5CCCO5)c5c(N)ncnc54)c3)cc2n1 [Compound I-156] |  |  |
| < 1000 | < 10 |  | CCc1cc(N(C)C2CC2)c2ccc(OCc3cncc(-n4cc([C@@H]5CCCO5)c5c(N)ncnc54)c3)cc2n1 [Compound I-167] |  |  |
| < 1000 | < 10 |  | CCc1cc(NC)c2ccc(OCc3cncc(-n4cc(-c5ccn(CCOC)n5)c5c(N)ncnc54)c3)cc2n1 [Compound I-154] |  |  |
| < 1000 | < 10 |  | CCc1cc(NCCOC)c2ncc(OCc3cncc(-n4cc([C@@H]5CCCO5)c5c(N)ncnc54)c3)cc2n1 [Compound I-152] |  |  |

From patent publication US20220372040A1, “METTL3 MODULATORS” (Accent Therapeutics, Inc., priority 2020, published 2022)
